Test: gradient 5% acetonitrile 3 min, to 50% in 2 min, to 85% in 15 min, held 3 min, 100 µL/min
Conditions: column: Zorbax Extend-C18 2.1 x 50 mm; eluents: water / acetonitrile, 0.1% formic acid
How it was run: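 Retention times of pure standards were taken from adduct peaks that were selected by computer and manually inspected. Over 3 months, mixtures of ~100 molecules were run by HPLC–quadrupole time-of-flight mass spectrometry in positive and negative ionization mode. The Zorbax Extend-C18 column (2.1 × 50 mm, 1.8 μm) ran at 100 μL/min in water and acetonitrile, each containing 0.1% formic acid, with 40 μL dead volume and 900 μL dwell volume.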

SMILES | RP-LC retention time [s]
CCn1ncn2cc(S(=O)(=O)Nc3ccc(F)c(F)c3)cc2c1=O | 884
C=CCNc1ncnc2sc(SC)nc12 | 855
CCc1ccc(NC(=O)c2c(C)oc3nc(C)nc(N4CCCC4)c23)cc1 | 830
COC(=O)c1c(-c2ccc(F)cc2)noc1NCc1ccccn1 | 771
CCCn1cc(CCNC(=O)c2ccc(C)c(F)c2)c2cccnc21 | 815
COc1ccccc1NC(=O)c1c(NC(=O)C(C)C)sc2c1CCC2 | 815
O=C(CN1C(=O)C2CCCCN2c2ccc(S(=O)(=O)N3CCCC3)cc21)NCCc1ccccc1 (stereo not given) | 966
Cc1ccc(CNC(=O)C2(C)CCCN(C(=O)Nc3ccccc3Br)C2)cc1 (stereo not given) | 1020
COCc1nc(C2CCN(S(=O)(=O)c3ccc4c(c3)OCCO4)C2)no1 (stereo not given) | 779
O=C(CN1C(=O)CC(c2cccs2)=Nc2ccccc21)Nc1ccc(F)cc1 | 928
CC(C)(C)Sc1ccc2nn(CC(=O)Nc3ccccc3C(F)(F)F)c(=O)n2n1 | 816
Cc1cc(C(=O)Nc2nc(-c3cc4ccccc4o3)cs2)on1 | 948
CCCn1c(=O)c2c(nc3n2CCCCN3c2ccc(OCC)cc2)n(C)c1=O | 973
CCOc1ccccc1NS(=O)(=O)c1cc(-c2c(C)noc2NC(C)=O)ccc1OC | 798
CSc1cccc2sc(N(Cc3ccco3)C(=O)c3ccc(C#N)cc3)nc12 | 1110
O=S(=O)(c1ccc(Cl)cc1)N1CCC2(CC1)NCCN=C2NCc1ccc(F)cc1 | 744
O=C(Nc1ccc(Cl)cc1)N1CCN(c2nc3ccccc3nc2C(F)(F)F)CC1 | 1150
COc1ccc(C(=O)N2CCC[C@H]2c2nc(C(C)C)n[nH]2)c(OC)n1 | 590
O=C(C1CCC1)N1CCC(Oc2cc(N3CCOCC3)ncn2)C1 (stereo not given) | 670
COc1ccc(Nc2nccc(C3CCCN(C(=O)C4CCCCC4)C3)n2)cc1 (stereo not given) | 997
CCC(C(=O)NC1CC1)n1nc(C)c2c(C)n(-c3ccc(C)cc3)nc2c1=O (stereo not given) | 802
Cc1nnc(N2CCCC(C(=O)NCCc3c[nH]c4ccccc34)C2)c2nn(-c3ccccc3)c(C)c12 (stereo not given) | 706
Cc1ccc(CNC(=O)c2cc(-c3ccncc3)cn2Cc2ccccc2C)o1 | 749

SMILES | RP-LC retention time [s]
CCOC(=O)C1=C(C)NC2=C(C(=O)C(C(=O)OC)C(C)C2)C1c1cccc(Cl)c1 (stereo not given) | 965
COCC(=O)N(CC(=O)N1CCc2sccc2C1COc1ccc(Cl)c(C)c1)C(C)C (stereo not given) | 967
Cc1cc(C)c2c(N3CCSCC3)nc(C(=O)N3CCCN(C)CC3)nc2n1 | 600
CN1C(=O)c2cc(C(=O)Nc3ccc(Cl)cc3)nn2CC1(C)C(=O)NC1CCCCC1 (stereo not given) | 898
Cc1cc(C(F)(F)F)nn1CC(=O)N1CCc2nn(C)c(=O)n2CC1 | 659
O=C(CC1CCOC2(CCN(Cc3ccsc3)CC2)C1)N1CCOCC1 (stereo not given) | 570
Cc1ccc(-c2ccnc(SCC(=O)NCc3ccccc3)n2)cc1C | 944
C=CCSc1nc(N)c2c(C)c(C(=O)O)sc2n1 | 708
Oc1cccc(-c2nc3cnc(Br)cn3c2Nc2ccc3c(c2)OCCO3)c1 | 794
CCS(=O)(=O)N1CC(=O)N(c2ccccc2C)C(C)(C(=O)NC2CCCCCCC2)C1 (stereo not given) | 951
O=C(NCc1cccc(F)c1)c1cc2n(n1)CCCC2 | 782
CC1(C(=O)NCc2ccccc2)CN(S(C)(=O)=O)CC(=O)N1Cc1ccccc1F (stereo not given) | 818
O=S(=O)(Cc1ccccc1)N1CCc2nc(-c3ccc(Cl)cc3)ncc2C1 | 1150
COc1ccc(NC(=O)C2CCN(c3cnc4nc(C)c(C)nc4c3)CC2)cc1Cl | 756
Cn1cccc1-c1cc2n(n1)CCCN2C(=O)CCC(=O)N1CCc2ccccc2C1 | 809
Cc1cccc(OCCc2noc(C3CNC3)n2)c1 | 644
O=C(Nc1nnc(SCc2cn3ccccc3n2)s1)C1(c2cccs2)CCCC1 | 611
CCc1nn2c(CNS(=O)(=O)c3cc(F)ccc3F)c(-c3ccccc3)nc2s1 | 929
CC1CCN(C(=O)C2CCN(c3nc4cccnc4s3)CC2)CC1 | 784
Cc1nn(CC(=O)NCCc2ccco2)c(=O)c2c(C)n(-c3ccccc3)nc12 | 774
CCCCOc1ccc(S(=O)(=O)N2CCN(c3nc(C)cc(N4CCOCC4)n3)CC2)cc1 | 818
COc1ccc2[nH]cc(CCNCc3ccc(Br)cc3)c2c1 | 764
CS(=O)(=O)N1CCN(CCNC(=O)NC(c2ccccc2)c2ccccc2)CC1 | 580

SMILES | RP-LC retention time [s]
O=C(Nc1cnc(N2CCOCC2)nc1)c1cccc(Cl)c1 | 793
CCOc1ncccc1C(=O)N1CCN(c2ccc(-c3ccc(OC)c(OC)c3)nn2)CC1 | 606
Cc1nnc2ccc(N3CCCC3)nn12 | 726
COc1ccc(C(=O)N2CCCn3nc(-c4cccs4)cc3C2)c(OC)c1 | 798
CCn1cc(C(=O)Nc2ccccc2)c(S(=O)(=O)N2CCSCC2)n1 | 834
Cc1ccc(NC(=O)Nc2c(-c3ccc(F)cc3)nc3ccccn23)cc1C | 714
N#CCNC(=O)C1CC(=O)N(CCc2c[nH]c3ccc(F)cc23)C1 (stereo not given) | 661
COc1ccc(CNC(=O)C2(c3ccc(NS(C)(=O)=O)cc3)CCCCC2)cc1 | 859
C[C@@H](NC(=O)c1ccc(F)cc1)C(=O)NCc1cscn1 | 627
COc1ccc(-c2cn3ccn(-c4ccc5c(c4)CCC5)c(=O)c3n2)cc1OC | 846
Cc1ccc(NC(=O)C2CCc3sc(C(=O)N4CCOCC4)cc3C2)cc1 (stereo not given) | 842
COc1cc(Cl)cc2c1OC=CC(C(=O)Nc1ccc(N3CCOCC3)cc1)=C2 | 979
Cc1noc2ncnc(N3CCC(C(=O)NCCCN4CCCCC4C)CC3)c12 (stereo not given) | 587
CCCCCn1c(=O)c2ccccc2n(Cc2nc(-c3ccc(F)cc3)no2)c1=O | 1270
Cc1cc(F)ccc1NS(=O)(=O)c1cc2n(c1)CCN(CC(C)C)C2=O | 828
CC(=O)N1CCCCC1c1nc(-c2cccnc2)no1 (stereo not given) | 663
Cc1cc(C)cc(C(=O)Nc2ccc(N3CCN(c4ccccc4)C3=O)nc2)c1 | 1050
Cc1ccc(NC(=O)CSc2nc(N3CCCCC3)nc3ccccc23)c(Cl)c1 | 901
Cc1cc(NC(=O)Cn2cccc2-c2nc(-c3ccc4c(c3)OCO4)no2)n[nH]1 | 786
CCc1cc(C(=O)Nc2ccccc2OC)nc2ccnn12 | 1090
C[C@]12CCC(=O)C(=O)C1CC[C@@H]1[C@@H]2CC[C@]2(C)C(=O)CC[C@@H]12 (stereo not given in full) | 1030
Cc1ccc(S(=O)(=O)c2cnc(N3CCN(c4cccc(Cl)c4)CC3)nc2N)cc1 | 1190
CN(CC(=O)N1CCOCC1)c1nc(C2CC2)nc2c1CCC2 | 560

SMILES | RP-LC retention time [s]
Cc1ccc(N2CCN(S(=O)(=O)c3cc4n(c3)CCCNC4=O)CC2)cc1 | 743
COc1ccc(Nc2c(-c3ccc4c(c3)OCO4)nc3cnccn23)cc1OC | 709
Cc1ccc(-n2nc(N3CCN(C(=O)Nc4ccccc4Cl)CC3)ccc2=O)cc1 | 833
COc1ccc2[nH]cc(CCNC(=O)c3c(Cl)cccc3Cl)c2c1 | 774
COc1cc(-c2noc(-c3cn(C)c4ccc(C)cc4c3=O)n2)cc(OC)c1OC | 827
O=C(Cn1c(=O)c2cccn2c2ccccc21)NCc1cccs1 | 763
O=C(CN1C(=O)CSc2cccn2-c2ccccc21)N1CCN(c2ccccn2)CC1 | 607
Cc1cccc(N2CCN(S(=O)(=O)c3cc(-c4nnc(C5CC5)o4)co3)CC2)c1 | 1020
COc1ccc2nc(C(=O)N3CCCCC3)cc(Nc3ccc(F)c(F)c3)c2c1 | 720
Cc1oc2c(c1C(=O)Nc1cccc(Br)c1)C1=NCCN1C=N2 | 643
O=C(COc1ccccc1)N1[C@H]2CC[C@@H]1c1cnc(-c3ccccc3)nc1C2 | 952
Cc1cn2c(S(=O)(=O)N3CCC4(CC3)OCCO4)c(C(C)C)nc2s1 | 891
Cc1occc1C(=O)Nc1nc(-c2ccc(CC(C)C)cc2)cs1 | 1350
COc1ccc(NC(=O)C2CCc3nc(N4CCCC4)ncc3C2)c(C)c1 (stereo not given) | 698
Cc1cccc(N2CCN(C(=O)c3csc(C(=O)NC4CC4)n3)CC2)c1 | 809
Cc1ccc(C)c(S(=O)(=O)Nc2cnc(N3CCNCC3)c(C(=O)NC3CCCC3)c2)c1 | 621
COc1ccc(C(=O)Nc2nc(CC(=O)Nc3nc4c(C)cccc4s3)cs2)cc1 | 1010
Cc1cccc(CN2CCC(CNC(=O)C3CCCN(c4nccc(C)n4)C3)CC2)c1 (stereo not given) | 615
CCS(=O)(=O)N1CCC(Cn2c(C)cnc2-c2ccccc2)C1 (stereo not given) | 576
CCc1ccc(NS(=O)(=O)c2ccc(-c3nnc(C4CCC4)o3)o2)cc1 | 996
Cc1c(Cl)cccc1NC(=O)N1CCCC(Cn2cnc3cccnc32)C1 (stereo not given) | 747

From the METLIN SMRT retention time set (Domingo-Almenara et al. 2019)
